From PMC2752819 (Assay and drug development technologies, 2008)
Where two headings read alike, the source gives them in different places.

Tests used:
[1] = cited from earlier work
MKP-1 = target: T1, MKP-1 (Homo sapiens, UniProt P28562); experiment: biochemical
T1 sequence (P28562 1-367): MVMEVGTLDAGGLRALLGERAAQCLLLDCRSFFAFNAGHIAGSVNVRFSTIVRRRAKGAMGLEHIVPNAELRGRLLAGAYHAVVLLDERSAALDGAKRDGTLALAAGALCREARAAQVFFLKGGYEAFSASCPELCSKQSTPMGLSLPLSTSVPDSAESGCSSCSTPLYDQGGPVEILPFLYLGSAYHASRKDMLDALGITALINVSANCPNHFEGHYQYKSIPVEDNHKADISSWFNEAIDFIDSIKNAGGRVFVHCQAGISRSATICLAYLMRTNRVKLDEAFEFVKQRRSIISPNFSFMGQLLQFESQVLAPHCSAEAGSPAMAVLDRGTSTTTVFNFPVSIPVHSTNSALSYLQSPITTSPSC

[2] = MKP-1 + 1 mM DTT + catalase IC50, 1 mM DTT + 100 U of catalase
[3] = MKP-1 + 25 mM DTT IC50, 25 mM DTT
[4] = read-out: MKP-1 + 1 mM DTT % inhibition at 50 μM
[5] = read-out: MKP-1 + 1 mM DTT + catalase % inhibition at 50 μM
[6] = read-out: MKP-1 + 25 mM DTT % inhibition at 50 μM

Compound	H2O2 generation in the presence of DTT [1]	IC50 (MKP-1; [2]) [µM]	IC50 (MKP-1; [3]) [µM]	inhibition at 50 µM (MKP-1; [4]) [%]	inhibition at 50 µM (MKP-1; [5]) [%]	inhibition at 50 µM (MKP-1; [6]) [%]
O=C1C(=O)c2ccccc2-c2ccccc21 [9,10-phenanthrenedione]	generate significant amounts of H2O2					
CCn1nc(-c2ccccc2)nc2c(=O)n(C)c(=O)nc1-2 [compound 845167, 1-ethyl-6-methyl-3-phenylpyrimido[5,6-e][1,2,4]triazine-5,7-dione]		> 50	4.9	95.6	-66.3	96.2
N#Cc1c(N)sc(=S)c2c1CCN(Cc1ccccc1)C2 [compound 845964, 3-amino-7-(phenylmethyl)-1-sulfanylidene-6,8-dihydro-5H-thiopyrano[5,4-c]pyridine-4-carbonitrile]		> 50	> 50	95.2	47.7	35.7
CCn1nc(-c2cccs2)nc2c(=O)n(C)c(=O)nc1-2 [compound 850758, 1-ethyl-6-methyl-3-thiophen-2-ylpyrimido[5,6-e][1,2,4]triazine-5,7-dione]		> 50	4.43	94.4	-92.2	98.2
CCCCn1c(NC(=O)c2ccccc2)c(C#N)c2nc3ccccc3nc21 [compound 3712327, N-(1-butyl-3-cyanopyrrolo[5,4-b]quinoxalin-2-yl)benzamide]			> 50	79.9	69.9	-5.25
Cn1ncnc2c(=O)n(C)c(=O)nc1-2 [compound 4251194, 1,6-dimethylpyrimido[5,6-e][1,2,4]triazine-5,7-dione]		> 50	5.68	94.4	-27.2	98
